Several values for one entry are separate records, joined by “and”; a condition that tells them apart may be missing. Equal entries are not always repeated. Toxic doses and inconclusive results are not listed. The calls were made as follows: active = survival T/C of 150% or more; inactive = T/C below 125% in these data.
Tested on: P388 leukemia ip, CD2F1 mice, survival T/C
Assay: NCI In Vivo Anticancer Drug Screen. Data for tumor model P388 Leukemia (intraperitoneal) in CD2F1 (CDF1) mice
Conditions: endpoint: median survival time, higher = longer survival
How it was run: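 Mice carrying the transplanted tumor received test compound or vehicle. Survival was recorded in each group, and the value is the treated-group measurement divided by that of the vehicle-treated control group.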

[1] = dose: 25.0 mg/kg/injection, schedule: Q01DX005 (ip), vehicle: saline with Tween-80
[2] = dose: 50.0 mg/kg/injection, schedule: Q01DX005 (ip), vehicle: saline with Tween-80
[3] = dose: 50.0 mg/kg/injection, schedule: Q01DX009 (ip), vehicle: Klucel (hydroxypropylcellulose) (HPC)
[4] = dose: 100.0 mg/kg/injection, schedule: Q01DX009 (ip), vehicle: Klucel (hydroxypropylcellulose) (HPC)
[5] = dose: 200.0 mg/kg/injection, schedule: Q01DX009 (ip), vehicle: Klucel (hydroxypropylcellulose) (HPC)
[6] = dose: 50.0 mg/kg/injection, schedule: Q01DX005 (ip), vehicle: saline
[7] = dose: 100.0 mg/kg/injection, schedule: Q01DX005 (ip), vehicle: saline
[8] = dose: 50.0 mg/kg/injection, schedule: Q01DX005 (ip), vehicle: Klucel (hydroxypropylcellulose) (HPC)
[9] = dose: 100.0 mg/kg/injection, schedule: Q01DX005 (ip), vehicle: Klucel (hydroxypropylcellulose) (HPC)
[10] = dose: 200.0 mg/kg/injection, schedule: Q01DX005 (ip), vehicle: Klucel (hydroxypropylcellulose) (HPC)
[11] = dose: 15.0 mg/kg/injection, schedule: Q01DX005 (ip), vehicle: saline with Tween-80
[12] = dose: 30.0 mg/kg/injection, schedule: Q01DX005 (ip), vehicle: saline with Tween-80
[13] = dose: 60.0 mg/kg/injection, schedule: Q01DX005 (ip), vehicle: saline with Tween-80
[14] = dose: 100.0 mg/kg/injection, schedule: Q04DX002 (ip), vehicle: saline with Tween-80
[15] = dose: 120.0 mg/kg/injection, schedule: Q01DX005 (ip), vehicle: saline with Tween-80
[16] = dose: 240.0 mg/kg/injection, schedule: Q01DX005 (ip), vehicle: saline with Tween-80

Measured: T/C

Cc1ccc(C)c(C(=O)/C=C/C(=O)O)c1
inactive: [1] 114 % of control | [2] 115 % of control and 117 % of control

CCOC(=O)N1CCN(CC(O)Cn2c(=O)c3c(nc(N4CCN(C(=O)OCC)CC4)n3C)n(C)c2=O)CC1 (stereo not given)
inactive: [3] 100 % of control | [4] 101 % of control | [5] 99 % of control

CCOP(=O)(CSCCC1(C)NC(=O)NC1=O)OCC (stereo not given)
inactive: dose: 60.0 mg/kg/injection, schedule: Q01DX005 (ip), vehicle: saline 102 % of control | dose: 120.0 mg/kg/injection, schedule: Q01DX005 (ip), vehicle: saline 103 % of control | dose: 240.0 mg/kg/injection, schedule: Q01DX005 (ip), vehicle: saline 102 % of control

C[N+](C)(CCCCCC[N+](C)(C)C1c2ccccc2-c2ccccc21)C1c2ccccc2-c2ccccc21
inactive: dose: 0.13 mg/kg/injection, schedule: Q01DX009 (ip), vehicle: saline 105 % of control | dose: 0.25 mg/kg/injection, schedule: Q01DX009 (ip), vehicle: saline 105 % of control | dose: 0.5 mg/kg/injection, schedule: Q01DX009 (ip), vehicle: saline 102 % of control | dose: 1.0 mg/kg/injection, schedule: Q01DX009 (ip), vehicle: saline 101 % of control

CCN(CC)CC(O)c1c(-c2ccccc2)c(-c2ccccc2)c2n1CCC2 (stereo not given)
inactive: [3] 103 % of control | [4] 106 % of control | [5] 109 % of control

CCCCN=C(N=C(N)N)NCC
inactive: [6] 102 % of control | [7] 102 % of control

CC1(c2ccc(Cl)cc2)OC(=O)CC(=O)O1
inactive: [8] 99 % of control | [9] 100 % of control | [10] 100 % of control

CCCCCCN=Cc1c(O)c(O)c(C(C)C)c2cc(C)c(-c3c(C)cc4c(C(C)C)c(O)c(O)c(C=NCCCCCC)c4c3O)c(O)c12
inactive: dose: 12.0 mg/kg/injection, schedule: Q01DX005 (ip), vehicle: saline with Tween-80 100 % of control | [1] 92 % of control | [2] 96 % of control

CCCC(OC)=C(C(=O)OCC)C(=O)OCC
inactive: dose: 50.0 mg/kg/injection, schedule: Q01DX009 (ip), vehicle: saline 93 % of control | dose: 100.0 mg/kg/injection, schedule: Q01DX009 (ip), vehicle: saline 94 % of control | dose: 200.0 mg/kg/injection, schedule: Q01DX009 (ip), vehicle: saline 89 % of control

CC(/C=N/NC1=NCCN1)=N/NC1=NCCN1
inactive: [6] 102 % of control | [7] 98 % of control | dose: 200.0 mg/kg/injection, schedule: Q01DX005 (ip), vehicle: saline 99 % of control

C[n+]1cccc(C2(O)CCCC2)c1
inactive: dose: 50.0 mg/kg/injection, schedule: Q01DX009 (ip), vehicle: saline with Tween-80 113 % of control | dose: 100.0 mg/kg/injection, schedule: Q01DX009 (ip), vehicle: saline with Tween-80 104 % of control | dose: 200.0 mg/kg/injection, schedule: Q01DX009 (ip), vehicle: saline with Tween-80 99 % of control

CC(=O)c1ccc(Cl)c(N=Cc2cc(Br)ccc2O)c1
inactive: [8] 88 % of control | [9] 95 % of control | [10] 92 % of control

CC(=O)Nc1nc([N+](=O)[O-])c(C(C)C)s1
inactive: dose: 100.0 mg/kg/injection, schedule: Q01DX001 (ip), vehicle: saline with Tween-80 98 % of control | dose: 200.0 mg/kg/injection, schedule: Q01DX001 (ip), vehicle: saline with Tween-80 97 % of control | dose: 400.0 mg/kg/injection, schedule: Q01DX001 (ip), vehicle: saline with Tween-80 93 % of control

O=C1OC2=C(CCCC2)C(N2CCCCC2)C12SCCCS2 (stereo not given)
inactive: dose: 100.0 mg/kg/injection, schedule: Q04DX003 (ip), vehicle: saline with Tween-80 109 % of control | dose: 200.0 mg/kg/injection, schedule: Q04DX003 (ip), vehicle: saline with Tween-80 103 % of control | dose: 400.0 mg/kg/injection, schedule: Q04DX003 (ip), vehicle: saline with Tween-80 101 % of control

O=C(O)CC1OCC=C2C[N+]3([O-])CCC45c6ccccc6NC4C1C2CC53 (stereo not given)
inactive: [11] 105 % of control | [12] 105 % of control | [13] 99 % of control and 101 % of control

CN(/N=C(C#N)/C(N)=N/NC(=O)c1ccccc1)c1ccccc1
inactive: dose: 25.0 mg/kg/injection, schedule: Q04DX002 (ip), vehicle: saline with Tween-80 103 % of control | dose: 50.0 mg/kg/injection, schedule: Q04DX002 (ip), vehicle: saline with Tween-80 96 % of control | [14] 96 % of control

COc1cccc2c1C(=O)c1c(O)c3c(c(O)c1C2=O)CC(O)(C(=O)COc1ccccc1)CC3OC1CC(NC(=O)C(F)(F)F)C(O)C(C)O1 (stereo not given)
inactive: dose: 1.56 mg/kg/injection, schedule: Q01DX009 (ip), vehicle: other 98 % of control and 102 % of control | dose: 3.13 mg/kg/injection, schedule: Q01DX009 (ip), vehicle: other 102 % of control and 110 % of control | dose: 12.5 mg/kg/injection, schedule: Q01DX009 (ip), vehicle: other 105 % of control | dose: 25.0 mg/kg/injection, schedule: Q01DX009 (ip), vehicle: other 114 % of control

CC1(Cl)C(c2ccccc2)=[N+]([O-])[N+]([O-])=C1c1ccccc1
inactive: [14] 112 % of control | dose: 200.0 mg/kg/injection, schedule: Q04DX002 (ip), vehicle: saline with Tween-80 112 % of control

O=C(Nc1cccc2c(NC(=O)N3CCCCC3)cccc12)N1CCCCC1
inactive: [11] 94 % of control | [12] 93 % of control | [15] 86 % of control | [16] 100 % of control

C[CH2][Ge]([CH2]C)[CH2]C.C[CH2][Ge]([CH2]C)[CH2]C.C[CH2][Ge]([CH2]C)[S][Ge]([CH2]C)[CH2]C
inactive: [13] 96 % of control | [15] 100 % of control | [16] 99 % of control

CC(CN1CCCCC1)NC(=O)c1scnc1-c1ccccc1 (stereo not given)
inactive: [13] 116 % of control | [15] 98 % of control

CC(=O)Nc1c(C)cccc1C
inactive: dose: 25.0 mg/kg/injection, schedule: Q01DX009 (ip), vehicle: Klucel (hydroxypropylcellulose) (HPC) 93 % of control | [3] 100 % of control | [4] 97 % of control | [5] 103 % of control

C=C1CC[C@H]2C(C)=CC[C@@H]3[C@H](OC(=O)[C@H]3CN3CCN(c4ccc(C)c([N+](=O)[O-])c4)CC3)[C@@H]12
inactive: dose: 100.0 mg/kg/injection, schedule: Q04DX002 (ip), vehicle: saline 97 % of control | dose: 200.0 mg/kg/injection, schedule: Q04DX002 (ip), vehicle: saline 99 % of control | dose: 400.0 mg/kg/injection, schedule: Q04DX002 (ip), vehicle: saline 96 % of control

C/C(=N\NC(=S)Nc1cccc(F)c1)c1ccccn1
inactive: [2] 109 % of control | dose: 100.0 mg/kg/injection, schedule: Q01DX005 (ip), vehicle: saline with Tween-80 112 % of control | dose: 200.0 mg/kg/injection, schedule: Q01DX005 (ip), vehicle: saline with Tween-80 119 % of control

NC1CCNC(O)[N-]1.NC1CCNC(O)[N-]1.[Cl][Pd][Cl] (stereo not given)
inactive: dose: 60.0 mg/kg/injection, schedule: Q01DX005 (ip), vehicle: Klucel (hydroxypropylcellulose) (HPC) 97 % of control | dose: 120.0 mg/kg/injection, schedule: Q01DX005 (ip), vehicle: Klucel (hydroxypropylcellulose) (HPC) 103 % of control | dose: 240.0 mg/kg/injection, schedule: Q01DX005 (ip), vehicle: Klucel (hydroxypropylcellulose) (HPC) 112 % of control

— PubChem BioAssay AID330 (DTP/NCI, 2004)
